{"source": "patent US20220047609A1", "about": "“VAGINAL INSERTED ESTRADIOL PHARMACEUTICAL COMPOSITIONS AND METHODS” (THERAPEUTICSMD, INC., priority 2012, published 2022)", "key": {"[1]": {"tested_on": "dyspareunia", "details": "cited from earlier work"}, "[2]": {"test": "Estradiol solubility in solubilizing agents (HPLC)", "format": "physicochemical", "details": "solubility of estradiol in the solubilizing agent, equilibrated three days", "experimental": "Initial solubility was measured by dissolving micronized estradiol into various solubilizing agents until the estradiol was saturated (the estradiol/solubilizing agent equilibrated for three days), filtering the undissolved estradiol, and analyzing the resulting pharmaceutical composition for estradiol concentration by HPLC."}, "[3]": {"details": "solubility of estradiol in the solubilizing agent; * denotes literature reference; cited from earlier work"}}}
{"smiles": "OCCOc1ccc(/C(=C(/CCCl)c2ccccc2)c2ccccc2)cc1", "note": "[ospemifene]", "values": [{"measurement": "vaginal discharge, frequency relative to the placebo group", "setting": "[1]; 12-week study", "result": "more than 6 times"}, {"measurement": "week until which statistically significant improvements of dyspareunia were not observed", "setting": "[1]; human, in vivo", "result": 12, "unit": "week"}]}
{"smiles": "CCOCCOCCO", "note": "[TRANSCUTOL HP, 2-(2-ethoxyethoxy)ethanol]", "values": [{"measurement": "Solubility", "setting": "[2]", "result": 141, "unit": "mg/g"}]}
{"smiles": "CC(O)CO", "note": "(stereo not shown) [Propylene Glycol]", "values": [{"measurement": "Solubility (mg/g)", "setting": "[3]", "result": "75* mg/g"}]}
